Source: publication PMC11876601 (Molecular Systems Biology, 2025)
Where two headings read alike, the source gives them in different places.

Test system: Suit2-07 cells
Experiment: Cell proliferation assay, GEM + ATR inhibitor (Incucyte confluence, 72 h);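 also: Suit2-07 cells grown in 96-well plates at 37 °C, 5% CO2, raw 72 h confluence taken without normalizing to starting confluence, each experiment done in triplicate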
Assay type: cell-based, human
Conditions: Suit2-07; for EC50: Homo sapiens, 72 h, experiment ATRi (ATR inhibitor alone); for Response: R1; for Curve top: plateau of fitted curve, ratio drug/vehicle confluence
Method: Cells were seeded at 5000 cells/well into 96-well flat bottom plates (Eppendorf) and allowed to attach overnight. […] Cells were incubated for 72 h at 37 °C and 5% CO2. Cell confluence readouts at 72 h were either normalized to their initial confluence using the Incucyte software (AsPC-1) or used without prior normalization (all others). […] Each experiment was performed in triplicates, the data was plotted as mean ± standard deviation (s.d.).

Compound: C[C@@H]1COCCN1c1cc(C2([S@](C)(=N)=O)CC2)nc(-c2cc[nH]c3nccc2-3)n1 [Ceralasertib]
- EC50 (-log10 of EC50 [M], read-out: pEC50 (converted)): 3.24e-06 M
- EC50 (mean (one replicate), read-out: EC50 mean): 3.24e-06 M
- EC50 (replicate R1, read-out: EC50): 3.24e-06 M
- Response (GEM+ATRi_dose1, GEM 0 nM + ATRi 10 nM, in % (unit assumed)): 99.44
- Response (GEM+ATRi_dose1, GEM 1 nM + ATRi 10 nM, in % (unit assumed)): 97.06
- Response (GEM+ATRi_dose1, GEM 3 nM + ATRi 10 nM, in % (unit assumed)): 98.33
- Response (GEM+ATRi_dose1, GEM 10 nM + ATRi 10 nM, in % (unit assumed)): 33.90
- Response (GEM+ATRi_dose1, GEM 30 nM + ATRi 10 nM, in % (unit assumed)): 18.26
- Response (GEM+ATRi_dose1, GEM 100 nM + ATRi 10 nM, in % (unit assumed)): 14.84
- Response (GEM+ATRi_dose1, GEM 300 nM + ATRi 10 nM, in % (unit assumed)): 14.60
- Response (GEM+ATRi_dose1, GEM 1000 nM + ATRi 10 nM, in % (unit assumed)): 10.84
- Response (GEM+ATRi_dose1, GEM 3000 nM + ATRi 10 nM, in % (unit assumed)): 13.52
- Response (GEM+ATRi_dose2, GEM 0 nM + ATRi 3 nM, in % (unit assumed)): 99.06
- Response (GEM+ATRi_dose2, GEM 1 nM + ATRi 3 nM, in % (unit assumed)): 97.53
- Response (GEM+ATRi_dose2, GEM 3 nM + ATRi 3 nM, in % (unit assumed)): 42.89
- Response (GEM+ATRi_dose2, GEM 10 nM + ATRi 3 nM, in % (unit assumed)): 18.83
- Response (GEM+ATRi_dose2, GEM 30 nM + ATRi 3 nM, in % (unit assumed)): 15.03
- Response (GEM+ATRi_dose2, GEM 100 nM + ATRi 3 nM, in % (unit assumed)): 14.03
- Response (GEM+ATRi_dose2, GEM 300 nM + ATRi 3 nM, in % (unit assumed)): 10.54
- Response (GEM+ATRi_dose2, GEM 1000 nM + ATRi 3 nM, in % (unit assumed)): 10.54
- Response (GEM+ATRi_dose2, GEM 3000 nM + ATRi 3 nM, in % (unit assumed)): 14.48
- Response (GEM+ATRi_dose3, GEM 0 nM + ATRi 30 nM, in % (unit assumed)): 99.04
- Response (GEM+ATRi_dose3, GEM 1 nM + ATRi 30 nM, in % (unit assumed)): 98.92
- Response (GEM+ATRi_dose3, GEM 3 nM + ATRi 30 nM, in % (unit assumed)): 74.44
- Response (GEM+ATRi_dose3, GEM 10 nM + ATRi 30 nM, in % (unit assumed)): 18.78
- Response (GEM+ATRi_dose3, GEM 30 nM + ATRi 30 nM): 15.93
- Response (GEM+ATRi_dose3, GEM 100 nM + ATRi 30 nM, in % (unit assumed)): 13.11
- Response (GEM+ATRi_dose3, GEM 300 nM + ATRi 30 nM, in % (unit assumed)): 12.75
- Response (GEM+ATRi_dose3, GEM 1000 nM + ATRi 30 nM, in % (unit assumed)): 9.23
- Response (GEM+ATRi_dose3, GEM 3000 nM + ATRi 30 nM, in % (unit assumed)): 13.00
- Response (experiment ATRi, ATRi 3 nM, GEM 0 nM, in % (unit assumed)): 99.07
- Response (experiment ATRi, ATRi 10 nM, GEM 0 nM, in % (unit assumed)): 99.08
- Response (experiment ATRi, ATRi 30 nM, GEM 0 nM, in % (unit assumed)): 98.55
- Response (experiment ATRi, ATRi 100 nM, GEM 0 nM, in % (unit assumed)): 98.02
- Response (experiment ATRi, ATRi 300 nM, GEM 0 nM, in % (unit assumed)): 95.91
- Response (experiment ATRi, ATRi 1000 nM, GEM 0 nM, in % (unit assumed)): 89.97
- Response (experiment ATRi, ATRi 3000 nM, GEM 0 nM, in % (unit assumed)): 57.79
- Response (experiment ATRi, ATRi 10000 nM, GEM 0 nM, in % (unit assumed)): 20.77
- Curve top (experiment GEM+ATRi_dose1): 0.15
- Curve top (experiment GEM+ATRi_dose2): 0.14
- Curve top (experiment GEM+ATRi_dose3): 0.13
